Entries after “also recorded” stand apart in the source; their conditions may differ. Where a name gives a salt, the structure may show the parent alone.
What was measured:
chicks = conditions: previous research with this chick model (Watson et al., 1996, 1999); cited from earlier work
rats = assay: formalin test in rats; format: in vivo
Text: The analgesic effects of the extracts of this invention were studied using the formalin test (Dubuisson, D., Dennis, S. G., “The formalin test: a quantitative study of the analgesic effects of morphine, meperidine, and brainstem stimulation in rats and cats,” Pain, 1977, 4, pp. 161-164), a commonly used animal model to study nociceptive processes and analgesic drug effects.
Male Holtzman rats weighing 150-175 g were obtained from Harlan Spraque Dawley (Indianapolis, Ind.) and housed under a 12:12 h light/dark cycle in individual stainless steel cages in a temperature and humidity controlled vivarium. Food and water were available ad libitum. In session one, the animals were allowed to acclimate to the colony room for two days and handled for an additional two days prior to conducting the experiment in order to reduce experimenter-related stress. In session two, animals were allowed to acclimate to the colony room for four days, handled for three days, and acclimated to the apparatus for two days prior to conducting the experiment in order to reduce experimenter-related stress. In both sessions, the animals were food-deprived for 12 h before administering the test articles.
A Plexiglas viewing chamber (30×30×30 cm) was used for data collection.
Naproxen was used as a reference. Samples were tested at a concentration of 100 mg/kg except Formulation J which was tested at 200 mg/kg.
In session one, 10 minutes before the formalin observation period, the formulations were delivered via gavage in a volume of 0.5 ml to obtain a minimum response interval of 30 min between the injection time and the second phase of the formalin response. In session two, formulations were delivered via gavage of 1 ml. Each animal received two formulation dosings before the tests: 70 and 10 minutes before the beginning of the formalin observation period in order to obtain a 90 and 30 min injection intervals before the second phase of the formalin response.
Immediately after administration of 0.05 ml of 2.5% formalin into the hindpaw, rats were placed into 30×30×30 cm Plexiglas observation chamber. The observation session lasted 50 min. A dependent measure was the amount of time in which the injected paw was 1) in a lift position and 2) licked, bitten or shaken across ten 5-min blocks. A composite pain score as a function of ten 5-min blocks was calculated according to the procedures of Watson et al. (Watson, G. S., Sufka, K. J., Coderre, T. J., “Optimal scoring strategies and weights for the formalin test in rats,” Pain, 1997, 70, pp. 53-58). Sample sizes were n=5-6 rats per group. […]
Data were screened for homogeneity of variance and analyzed using repeated measures analysis of variance (ANOVA) and Fisher's LSD procedures.

CNC1=Nc2ccc(Cl)cc2C(c2ccccc2)=[N+]([O-])C1 [chlorodiazepoxide, chlordiazepoxide]
ED50 in attenuating separation-induced DVoc (chicks): 3.75 mg/kg

COc1ccc2cc3[n+](cc2c1OC)CCc1cc2c(cc1-3)OCO2 [Formulation K, berberine HCl]
effect on formalin-induced pain behaviors (CPS), in words (rats; session 1, 100 mg/kg by gavage 10 min before observation, HCl, 100 mg/kg): attenuated pain-related behaviors during the second phase; also recorded: reduced pain during the fourth to the tenth time block

COc1ccc2cc([C@H](C)C(=O)O)ccc2c1 [Naproxen]
effect on formalin-induced pain behaviors (CPS), in words (rats; session 1, 100 mg/kg by gavage 10 min before observation, 100 mg/kg): did not affect pain behaviors
effect on formalin-induced pain behaviors (CPS), in words (rats; session 1, 100 mg/kg by gavage 10 min before observation, listed as naproxen, 100 mg/kg): had no effect on pain
effect on formalin-induced pain behaviors (CPS), in words (rats; session 2, two gavage dosings 70 and 10 min before observation, Naproxen 100 mg, Formulation J 200 mg/kg, b186 prints 100 mg/kg): attenuated the second phase of the formalin response

Cc1nnc2n1-c1ccc(Cl)cc1C(c1ccccc1)=NC2 [alprazolam]
ED50 in attenuating separation-induced DVoc (chicks): 0.19 mg/kg

O=C1Nc2ccc(Cl)cc2C(c2ccccc2Cl)=NC1O (stereo not shown) [lorazepam]
ED50 in attenuating separation-induced DVoc (chicks): 0.34 mg/kg

Source: patent publication US20030215531A1, “Compositions and methods of use for extracts of Rutaceae plants” (priority 2000, published 2003)
